Test results taken from patent US10323001B2, “Compositions for modulating a kinase cascade and methods of use thereof” (Athenex, Inc., priority 2006, dated 2019).
Counter-ions that a name gives are not always drawn. Like-named read-outs stand apart in the source and are kept apart here.

What was measured:
[1] = Threshold solubility of salt screen 96 well plate; settings: salt screen well: 1 Equivalent of Acid, DI water
Procedure: Following each addition, the plate was shaken to encourage mixing for at least 5 minutes prior to evaluation.

[2] = Slurry study (acetone, DI water); type: physicochemical; settings: Acetone slurry/RT, one and five days
Procedure: Slurry experiments were performed using acetone and DI water on KX2-391.MSA, Form A. Each vial was filled with approximately 30 mg of KX2-391.MSA, Form A and 0.5 and 1 mL of corresponding solvent, followed by stirring at room temperature for one and five days. The obtained solids were isolated by filtration, dried under vacuum at room temperature, and analyzed by HPLC and XRPD. The initial purity of KX2-391.MSA was 99.4%.

[3] = Moisture-sorption analysis (Hiden IGAsorp); type: physicochemical; settings: for Moisture Sorption Wt % Water @ 90% RH: mesylate
Procedure: Moisture-sorption experiments were performed using a Hiden IGAsorp Moisture Sorption instrument on KX2-391.MSA obtained in accordance with the process of the present invention (Example 4). First, the sample was dried at 0% Relative Humidity (RH) and 25° C. until an equilibrium weight was reached or for a maximum of four hours. The sample was then subjected to an isothermal (25° C.) adsorption scan from 10 to 90% RH in steps of 10%. The sample was allowed to equilibrate to an asymptotic weight at each point for a maximum of four hours. Following adsorption, a desorption scan from 85 to 0% RH (at 25° C.) was run in steps of −10% again allowing a maximum of four hours for equilibration to an asymptotic weight. The sample was then dried for one hour at 80° C. and the resulting solid analyzed by XRPD. […] FIG. 10 depicts percent change of water content as a function of relative humidity for KX2-391.MSA, Form A.
Moisture-sorption experiments were performed using a Hiden IGAsorp Moisture Sorption Instrument on KX2-391.2HCl obtained in accordance with the process of the present invention (Example 3). First, the sample was dried at 0% Relative Humidity (RH) and 25° C. until an equilibrium weight was reached or for a maximum of four hours. The sample was then subjected to an isothermal (25° C.) adsorption scan from 10 to 90% RH in steps of 10%. The sample was allowed to equilibrate to an asymptotic weight at each point for a maximum of four hours. Following adsorption, a desorption scan from 85 to 0% RH (at 25° C.) was run in steps of −10% again allowing a maximum of four hours for equilibration to an asymptotic weight. The sample was then dried for one hour at 80° C. and the resulting solid analyzed by XRPD.

[4] = Aqueous solubility study in buffers at 37° C.; type: physicochemical; settings: overnight at 37° C.; for solubility: thermodynamic from solid
Procedure: The solubility of KX2-391 mesylate, Form A was determined in SGF (pH 2), acetate buffer (pH 4.5), and phosphate buffer (pH 7.2). Slurries of KX2-391 mesylate in the buffer solution were allowed to equilibrate overnight at 37° C. The solids were then isolated and the supernatant was diluted and analyzed by HPLC. The response of the supernatant was then compared against a calibration curve to determine the solubility.

[5] = 5 mg/mL DI water dissolution experiment; type: physicochemical; set-up: key to dissolution state: P—Particulates partially dissolved; D—Particulates fully dissolved; settings: about 5 mg in 1 mL DI water, magnetic stirring
Procedure: Dissolution experiments were performed on KX2-391 salts to provide a better understanding of the salts interaction in water. This was accomplished using a 5 mg/mL DI water dissolution experiment where 5 mg of each salt was weighed into a vial and 1 mL of DI wather was added. The solution was monitored visually with magnetic stirring over a 20 minute time period to observe the time of dissolution.

[6] = Pressure and grinding studies; type: physicochemical
[7] = Solubility in DI water and pH 2.0 phosphate buffer; type: physicochemical
Procedure: The table below summarizes additional characterization data for the fumaric and maleate KX2-391.MSA salts and compares it to free base, bis-HCl, and MSA salts described above. The results in the table below were obtained using the procedures described above in Examples 5 (XRPD), 6 (DSC), 7 (TGA), and 8 (moisture-sorption).
Solubility experiments were also performed using pH 2.0 phosphate buffer and DI water pH 6.9 and KX2-391.MSA, Form A. Each vial was filled with approximately 50 mg of KX2-391.MSA, Form A and 100 μL aliquots of the corresponding solvent was added until complete dissolution was observed, followed by stirring at room temperature for one and five days. The solids obtained were isolated by filtration, dried under vacuum at room temperature and analyzed by HPLC. The initial HPLC purity of KX2-391.MSA, Form A was 99.4 (% area). The solubility by HPLC of KX2-391.MSA, Form A in phosphate buffer/RT was >500 mg/mL and HPLC purity was measured to be 99.4. The solubility by HPLC of KX2-391.MSA, Form A in DI H2O/RT was >500 mg/mL and HPLC purity was measured to be 99.4.

[8] = Slurry studies, 2 weeks at ambient conditions; type: physicochemical; settings: for Form After 2 Weeks (XRPD): initial Form A
Text: After 2 weeks slurry at ambient conditions, the solids were isolated and analyzed by XRPD and HPLC. No additional forms were observed by XRPD.

[9] = slurry in Dioxane:water (~0.9:0.1)

Compound: O=C(Cc1ccc(-c2ccc(OCCN3CCOCC3)cc2)cn1)NCc1ccccc1 [KX2-391.MSA, 2-(5-(4-(2-morpholinoethoxy)phenyl)pyridine-2-yl)-N-benzylacetamide mesylate]
- Threshold solubility rank ([1]; Acetone): 1
- Threshold solubility rank ([1]; Dioxane): 1
- Threshold solubility rank ([1]; THF): 1
- XRPD of solid after slurry [2]: consistent with the pattern of the initial KX2-391.MSA, Form A
- HPLC purity after slurry ([2]; initial 99.4%): 99.3%
- hygroscopicity by moisture sorption analysis ([3]; 25° C., adsorption scan 10 to 90% RH): slightly-hygroscopic
- water absorbed at 60% RH ([3]; 60% RH, 25° C.): 1.1 wt %
- Moisture Sorption Wt % Water @ 90% RH ([3]; 25° C., listed as MSA): 5.7 wt %
- Moisture Sorption Wt % Water @ 90% RH ([3]; 25° C.): 5.7 wt %
- XRPD pattern of material resulting from the moisture sorption experiment ([3]; after adsorption/desorption scans and drying one hour at 80° C.): consistent with the starting form
- pH after slurry ([4]; SGF (pH 2.0)): 4.5
- pH after slurry ([4]; acetate (pH 4.5)): 4.4
- solubility ([4]; acetate buffer, aqueous buffer, acetate (pH 4.5)): 737 mg/mL
- pH after slurry ([4]; phosphate (pH 7.2)): 4.3
- solubility ([4]; phosphate buffer, aqueous buffer, phosphate (pH 7.2)): 150 mg/mL
- solubility ([4]; simulated gastric fluid, SGF (pH 2.0)): 700 mg/mL
- dissolution state ([5]; 0 s): P
- dissolution state ([5]; 30 s): P
- dissolution state ([5]; 1 min): D
- effect of physical stress on the crystalline form [6]: No change in crystalline form was observed
- pH of solubility sample [7]: 4.6
- HPLC purity after solubility experiment ([7]; pH 2): 99.4 % area
- Solubility mg/mL ([7]; pH 2): pH 2: >500 mg/mL
- pH of solubility sample ([7]; pH 2): (4.3)
- solubility ([7]; pH 2, aqueous buffer, thermodynamic from solid): > 500 mg/mL
- HPLC purity after solubility experiment ([7]; pH 6.9): 99.4 % area
- solubility ([7]; pH 6.9): > 500 mg/mL
- solubility ([7]; pH 6.9, water, thermodynamic from solid): > 500 mg/mL
- HPLC Purity (AUC) after 2 weeks slurry ([8]; slurry in 1-butanol): >99%
- Form After 2 Weeks (XRPD) ([8]; slurry in 1-butanol): Form A
- HPLC Purity (AUC) after 2 weeks slurry [8, 9]: >99%
- Form After 2 Weeks (XRPD) [8, 9]: Form A
- HPLC Purity (AUC) after 2 weeks slurry ([8]; slurry in IPA): >99%
- Form After 2 Weeks (XRPD) ([8]; slurry in IPA): Form A
- HPLC Purity (AUC) after 2 weeks slurry ([8]; slurry in MeCN): >99%
- Form After 2 Weeks (XRPD) ([8]; slurry in MeCN): Form A
- HPLC Purity (AUC) after 2 weeks slurry ([8]; slurry in THF:water (~0.9:0.1)): >99%
- Form After 2 Weeks (XRPD) ([8]; slurry in THF:water (~0.9:0.1)): Form A
